Molecular target: BRD4 in HeLa cells (Homo sapiens, UniProt O60885)
Assay: Western blot analysis of BRD4 degradation
Format: cell-based
Settings: HeLa cells treated 24 h with varying concentrations; GAPDH loading control

Compound: Cc1ncsc1-c1ccc(CNC(=O)[C@@H]2C[C@@H](O)CN2C(=O)[C@@H](NC(=O)COCCOCCOCCNC(=O)C[C@@H]2N=C(c3ccc(Cl)cc3)c3c(sc(C)c3C)-n3c(C)nnc32)C(C)(C)C)cc1 [MZ1]
- BRD4 degradation (western blot): dose dependent degradation of BRD4

— PMC7010361 (ACS chemical biology, 2019)
